Target: T1, CDK2/Cyclin E1 (Homo sapiens, UniProt P24941)
T1 construct: utilize full-length human CDK2 co-expressed as N-terminal GST-tagged protein; GST (N); purchased Carna 04-165; host or cells: baculovirus expression system
Experiment: CDK2/Cyclin E1 HTRF enzyme activity assay (Example A)
Assay type: biochemical
Conditions: 1 mM ATP
Procedure: CDK2/Cyclin E1 enzyme activity assays utilize full-length human CDK2 co-expressed as N-terminal GST-tagged protein with FLAG-Cyclin E1 in a baculovirus expression system (Carna Product Number 04-165). Assays are conducted in white 384-well polystyrene plates in a final reaction volume of 8 μL. CDK2/Cyclin E1 (0.25 nM) is incubated with compounds (40 nL serially diluted in DMSO) in the presence of ATP (50 μM or 1 mM) and 50 nM ULight™-labeled eIF4E-binding protein 1 (THR37/46) peptide (PerkinElmer) in assay buffer (containing 50 mM HEPES pH 7.5, 1 mM EGTA, 10 mM MgC2, 2 mM DTT, 0.05 mg/mL BSA, and 0.01% Tween 20) for 60 minutes at room temperature. The reactions are stopped by the addition of EDTA and Europium-labeled anti-phospho-4E-BP1 antibody (PerkinElmer), for a final concentration of 15 mM and 1.5 nM, respectively. HTRF signals are read after 1 hour at room temperature on a PHERAstar FS plate reader (BMG Labtech). Data is analyzed with IDBS XLFit and GraphPad Prism 5.0 software using a three or four parameter dose response curve to determine IC50 for each compound.

IC50 [nM] | SMILES
≤ 50 | CC1CCCC1N1C(=O)C2(CC2)c2cnc(NC3CCN(S(C)(=O)=O)CC3)nc21 (mixture of isomers) [Example B8, 7′-(2-methylcyclopentyl)-2′-((1-(methylsulfonyl)piperidin-4-yl)amino)spiro[cyclopropane-1,5′-pyrrolo[2,3-d]pyrimidin]-6′(7′H)-one]
50 to 100 | CCC(C(F)F)N1C(=O)C(C)(C)Cc2cnc(NC3CCN(S(C)(=O)=O)CC3)nc21 (racemic) [Example A4, 8-(1,1-difluorobutane-2-yl)-6,6-dimethyl-2-((1-(methylsulfonyl)piperidin-4-yl)amino)-5,8-dihydropyrido[2,3-d]pyrimidin-7(6H)-one]
100 to 500 | CC1(C)Cc2cnc(NC3CCN(S(C)(=O)=O)CC3)nc2N(C2CCOC2)C1=O (racemic) [Example A6, 6,6-dimethyl-2-((1-(methylsulfonyl)piperidin-4-yl)amino)-8-(tetrahydrofuran-3-yl)-5,8-dihydropyrido[2,3-d]pyrimidin-7(6H)-one]
≤ 50 | CCC(C(F)F)N1C(=O)C2(CC2)c2cnc(NC3CCN(S(C)(=O)=O)CC3)nc21 (racemic) [Example B10, 7′-(1,1-difluorobutane-2-yl)-2′-((1-(methylsulfonyl)piperidin-4-yl)amino)spiro[cyclopropane-1,5′-pyrrolo[2,3-d]pyrimidin]-6′(7′H)-one]
≤ 50 | C[C@@]1(O)CCC[C@H]1N1C(=O)C2(CC2)c2cnc(NC3CCN(S(=O)(=O)c4ncc[nH]4)CC3)nc21 (relative stereo) [Example B17, 2′-((1-((1H-imidazol-2-yl)sulfonyl)piperidin-4-yl)amino)-7′-((trans)-2-hydroxy-2-methylcyclopentyl)spiro[cyclopropane-1,5′-pyrrolo[2,3-d]pyrimidin]-6′(7′H)-one]
≤ 50 | CC1(C)Cc2cnc(Nc3ccc(S(N)(=O)=O)cc3)nc2N(C2CCCC2)C1=O [Example A1, 4-((8-cyclopentyl-6,6-dimethyl-7-oxo-5,6,7,8-tetrahydropyrido[2,3-d]pyrimidin-2-yl)amino)benzenesulfonamide]
≤ 50 | CC1(C)Cc2cnc(NC3CCN(S(C)(=O)=O)CC3)nc2N(C2CCCC2)C1=O [Example A2, 8-cyclopentyl-6,6-dimethyl-2-((1-(methylsulfonyl)piperidin-4-yl)amino)-5,8-dihydropyrido[2,3-d]pyrimidin-7(6H)-one]
100 to 500 | CC1(C)Cc2cnc(NC3CCN(S(C)(=O)=O)CC3)nc2N(c2ccccc2)C1=O [Example A3, 6,6-dimethyl-2-((1-(methylsulfonyl)piperidin-4-yl)amino)-8-phenyl-5,8-dihydropyrido[2,3-d]pyrimidin-7(6H)-one]
100 to 500 | Cn1nccc1CN1C(=O)C(C)(C)Cc2cnc(NC3CCN(S(C)(=O)=O)CC3)nc21 [Example A5, 6,6-dimethyl-8-((1-methyl-1H-pyrazol-5-yl)methyl)-2-((1-(methylsulfonyl)piperidin-4-yl)amino)-5,8-dihydropyrido[2,3-d]pyrimidin-7(6H)-one]
100 to 500 | CC1CC(Nc2ncc3c(n2)N(C2CCCC2)C(=O)C32CC2)CCN1S(C)(=O)=O (stereo not shown) [Example B1, 7′-cyclopentyl-2′-((2-methyl-1-(methylsulfonyl)piperidin-4-yl)amino)spiro[cyclopropane-1,5′-pyrrolo[2,3-d]pyrimidin]-6′(7′H)-one]
100 to 500 | CS(=O)(=O)N1CCC(Nc2ncc3c(n2)N(C2CCCC2)C(=O)C32CC2)CC1 [Example B2, 7′-cyclopentyl-2′-((1-(methylsulfonyl)piperidin-4-yl)amino)spiro[cyclopropane-1,5′-pyrrolo[2,3-d]pyrimidin]-6′(7′H)-one]
≤ 50 | O=C1N(C2CCCC2)c2nc(NC3CCN(S(=O)(=O)C4CC4)CC3)ncc2C12CC2 [Example B3, 7′-cyclopentyl-2′-((1-(cyclopropylsulfonyl)piperidin-4-yl)amino)spiro[cyclopropane-1,5′-pyrrolo[2,3-d]pyrimidin]-6′(7′H)-one]
100 to 500 | O=C1N(C2CCCC2)c2nc(NC3CCN(S(=O)(=O)C4CCOCC4)CC3)ncc2C12CC2 [Example B4, 7′-cyclopentyl-2′-((1-((tetrahydro-2H-pyran-4-yl)sulfonyl)piperidin-4-yl)amino)spiro[cyclopropane-1,5′-pyrrolo[2,3-d]pyrimidin]-6′(7′H)-one]
≤ 50 | O=C1N(C2CCCC2)c2nc(NC3CCN(S(=O)(=O)c4cccnc4)CC3)ncc2C12CC2 [Example B5, 7′-cyclopentyl-2′-((1-(pyridin-3-ylsulfonyl)piperidin-4-yl)amino)spiro[cyclopropane-1,5′-pyrrolo[2,3-d]pyrimidin]-6′(7′H)-one]
50 to 100 | O=C1N(C2CCCC2)c2nc(NC3CCN(S(=O)(=O)c4ccc(Cl)cc4)CC3)ncc2C12CC2 [Example B6, 2′-((1-((4-chlorophenyl)sulfonyl)piperidin-4-yl)amino)-7′-cyclopentylspiro[cyclopropane-1,5′-pyrrolo[2,3-d]pyrimidin]-6′(7′H)-one]
≤ 50 | Cn1cc(S(=O)(=O)N2CCC(Nc3ncc4c(n3)N(C3CCCC3)C(=O)C43CC3)CC2)cn1 [Example B7, 7′-cyclopentyl-2′-((1-((1-methyl-1H-pyrazol-4-yl)sulfonyl)piperidin-4-yl)amino)spiro[cyclopropane-1,5′-pyrrolo[2,3-d]pyrimidin]-6′(7′H)-one]
100 to 500 | Cc1ccccc1N1C(=O)C2(CC2)c2cnc(NC3CCN(S(C)(=O)=O)CC3)nc21 [Example B9, 2′-((1-(methylsulfonyl)piperidin-4-yl)amino)-7′-(o-tolyl)spiro[cyclopropane-1,5′-pyrrolo[2,3-d]pyrimidin]-6′(7′H)-one]
50 to 100 | Cc1c(N2C(=O)C3(CC3)c3cnc(NC4CCN(S(C)(=O)=O)CC4)nc32)cnn1C [Example B11, 7′-(1,5-dimethyl-1H-pyrazol-4-yl)-2′-((1-(methylsulfonyl)piperidin-4-yl)amino)spiro[cyclopropane-1,5′-pyrrolo[2,3-d]pyrimidin]-6′(7H)-one]
≤ 50 | Cn1cc(S(=O)(=O)N2CCC(Nc3ncc4c(n3)N([C@@H]3CCC[C@@H](O)C3)C(=O)C43CC3)CC2)cn1 [Example B12, 7′-((1R,3R)-3-hydroxycyclohexyl)-2′-((1-((1-methyl-1H-pyrazol-4-yl)sulfonyl)piperidin-4-yl)amino)spiro[cyclopropane-1,5′-pyrrolo[2,3-d]pyrimidin]-6′(7′H)-one]
≤ 50 | O=C1N([C@@H]2CCC[C@@H](O)C2)c2nc(NC3CCN(S(=O)(=O)c4cccc(N5CCC5)n4)CC3)ncc2C12CC2 [Example B13, 2′-((1-((6-(azetidin-1-yl)pyridin-2-yl)sulfonyl)piperidin-4-yl)amino)-7′-((1R,3R)-3-hydroxycyclohexyl)spiro[cyclopropane-1,5′-pyrrolo[2,3-d]pyrimidin]-6′(7′H)-one]
≤ 50 | C[C@@H](C1CC1)N1C(=O)C2(CC2)c2cnc(NC3CCN(S(=O)(=O)c4ncc[nH]4)CC3)nc21 [Example B14, (S)-2′-((1-((1H-imidazol-2-yl)sulfonyl)piperidin-4-yl)amino)-7′-(1-cyclopropylethyl)spiro[cyclopropane-1,5′-pyrrolo[2,3-d]pyrimidin]-6′(7′H)-one]
≤ 50 | C[C@@H](C1CC1)N1C(=O)C2(CC2)c2cnc(NC3CCN(S(=O)(=O)c4ccc(=O)[nH]c4)CC3)nc21 [Example B15, (S)-7′-(1-cyclopropylethyl)-2′-((1-((6-oxo-1,6-dihydropyridin-3-yl)sulfonyl)piperidin-4-yl)amino)spiro[cyclopropane-1,5′-pyrrolo[2,3-d]pyrimidin]-6′(7′H)-one]
≤ 50 | CCN1CC(n2cc(S(=O)(=O)N3CCC(Nc4ncc5c(n4)N([C@@H](C)C4CC4)C(=O)C54CC4)CC3)cn2)C1 [Example B16, (S)-7′-(1-cyclopropylethyl)-2′-((1-((1-(1-ethylazetidin-3-yl)-1H-pyrazol-4-yl)sulfonyl)piperidin-4-yl)amino)spiro[cyclopropane-1,5′-pyrrolo[2,3-d]pyrimidin]-6′(7′H)-one]
≤ 50 | O=C1N(c2cc3c(cc2Cl)CNCC3)c2nc(NC3CCN(S(=O)(=O)c4ncc[nH]4)CC3)ncc2C12CC2 [Example B18, 2′-((1-((1H-imidazol-2-yl)sulfonyl)piperidin-4-yl)amino)-7′-(7-chloro-1,2,3,4-tetrahydroisoquinolin-6-yl)spiro[cyclopropane-1,5′-pyrrolo[2,3-d]pyrimidin]-6′(7′H)-one]
≤ 50 | CCn1cnc(S(=O)(=O)N2CCC(Nc3ncc4c(n3)N(c3cc(F)ccc3Cl)C(=O)C43CC3)CC2)c1 [Example B19, 7′-(2-chloro-5-fluorophenyl)-2′-((1-((1-ethyl-1H-imidazol-4-yl)sulfonyl)piperidin-4-yl)amino)spiro[cyclopropane-1,5′-pyrrolo[2,3-d]pyrimidin]-6′(7′H)-one]
